These results are taken from US7915291B2, “Hepatitis C virus inhibitors” (Bristol-Myers Squibb Company, priority 2002, dated 2011).

Where two headings read alike, the source gives them in different places.

In experiment [1] the test system is HCV replicon in Huh7 cells. The experiment can be described thus: HCV replicon cell-based assay. Also noted: species or system HCV strain 1B. Particulars: Hepatitis C virus, Huh-7, HCV replicon, Huh7 cells. On the technique in general: Replicon systems follow genome replication, usually without infectious particles.
The target of experiment [2] is T1, human liver cathepsin B (Homo sapiens, UniProt P07858).
T1 construct: purchased Sigma; host or cells: human liver (as named)
Put plainly: Specificity assay, cathepsin B. It counts as biochemical. Particulars: 2 hr pre-incubation. As to the method:
The specificities of compounds of the present invention were determined against a variety of serine proteases: human leukocyte elastase (HLE), porcine pancreatic elastase (PPE) and human pancreatic chymotrypsin and one cysteine protease: human liver cathepsin B. In all cases a 96-well plate format protocol using colorimetric p -nitroaniline (pNA) substrate specific for each enzyme was used as described previously (Patent WO 00/09543) with some modifications to the serine protease assays. All enzymes were purchased from Sigma while the substrates were from Bachem.
Each assay included a 2 hr enzyme-inhibitor pre-incubation at RT followed by addition of substrate and hydrolysis to ˜30% conversion as measured on a Spectramax Pro microplate reader. Compound concentrations varied from 100 to 0.4 μM depending on their potency. […]
The percentage of inhibition was calculated using the formula: [1−((UVinh−UVblank)/(UVctl−UVblank))]×100 […]

What is called EC50 is the concentration that produces a half-maximal response. As usually defined, the IC50 is the concentration at which inhibition is half-maximal. Low readings indicate greater potency, high ones weaker potency. Consider `C=C[C@@H]1C[C@]1(NC(=O)[C@@H]1C[C@@H](Oc2nc(C3CC3)cc3ccccc23)CN1C(=O)[C@@H](NC(=O)OC(C)(C)C)C(C)(C)C)C(=O)NS(=O)(=O)C1CC1` [Compound 34], for which the EC50 in experiment [1] (read-out: EC50 range) was 0.1 to 1 µM; in experiment [1] (read-out: EC50 value in the replicon assay), 0.166 µM. This compound also displayed an IC50 in experiment [2] of over 200 µM.
